Experimental data as given in patent US8173711B2, “Agent for relief or prevention of xerostomia” (Kaneka Corporation, priority 2007, dated 2012).
Marks after values point to notes of the source that are not given here.

Key:
healthy persons = assay: Saxon test, amount of secreted saliva, coenzyme Q10 capsule intake in healthy persons; format: in vivo, human; conditions: for Amount of secreted saliva, Increased amount: difference after minus before one-month intake; for Amount of secreted saliva, After intake / Amount of secreted saliva, Before intake: group average; for Amount of secreted saliva, After intake: after one 100 mg capsule every day for one month; for Amount of secreted saliva, Before intake: before intake of one 100 mg capsule every day for one month; for Significant or excessive increase of secreted saliva before versus after intake: one capsule every day for one month
Description: (§1) The amount of secreted saliva was measured by Saxon test. Namely, a test subject chewed a piece of gauze for 2 minutes. The weight of the gauze piece had been measured in advance. After the 2-minute chewing, the weight of the gauze piece was measured. The amount of secreted saliva was calculated as a difference between the weights of the gauze piece before and after the 2-minute chewing. In the present example, those whose amount of secreted saliva measured by Saxon test was 2.0 g/2 min. or less were determined as xerostomia patients, and those whose amount of secreted saliva was more than that were determined as healthy persons. Tables 2 and 3 illustrate the average values of all subjects of each group.
In total, 57 healthy persons (12 males, 45 females) were collected as volunteers. One oxidized coenzyme Q10-containing capsule having the composition illustrated in Table 1 (Test food 1, 240 mg per capsule) was administered every day for one month to a group consisting of 22 healthy persons (5 males, 17 females), and one reduced coenzyme Q10-containing capsule having the composition illustrated in Table 1 (Test food 2, 240 mg per capsule) was administered every day for one month to another group consisting of 22 healthy persons (5 males, 17 females). The amount of secreted saliva was measured for each group before and after the intake by the same procedure as that in Example 1. To remaining 13 healthy persons (2 males, 11 females), one placebo capsule (Control food, 240 mg per capsule) was administered every day for one month. The amount of secreted saliva was measured before and after the intake.

[1] = system: xerostomia (dry mouth) outpatients; assay: Saxon test, amount of secreted saliva, coenzyme Q10 capsule intake in patients with xerostomia; format: in vivo, human; conditions: for Amount of secreted saliva, Increased amount: difference after minus before one-month intake; for Amount of secreted saliva, After intake / Amount of secreted saliva, Before intake: group average; for Amount of secreted saliva, After intake: after one 100 mg capsule every day for one month; for Amount of secreted saliva, Before intake: before intake of one 100 mg capsule every day for one month
Description: A test subject chews a piece of gauze for 2 minutes. The weight of the gauze piece has been measured in advance. After the 2-minute chewing, the weight of the gauze is measured. An amount of secreted saliva is calculated as a difference between the weights of the gauze piece before and after the 2-minute chewing.
In total 23 xerostomia (dry mouth) outpatients (23 females including 21 Sjogren syndrome patients) were divided into three groups. To one group consisting of 9 patients, one oxidized coenzyme Q10-containing capsule having the composition illustrated in Table 1 (Test food 1, 240 mg per capsule) was administered every day for one month. To another group consisting of another 9 patients, one reduced coenzyme Q10-containing capsule having the composition shown in Table 1 (Test food 2, 240 mg per capsule) was administered every day for one month. The amount of secreted saliva was measured for each group before and after the intake. To the other group consisting of remaining 5 patients, one placebo capsule (Control food, 240 mg per capsule) was administered every day for one month. The amount of secreted saliva was similarly measured before and after the intake.
as §1

[2] = system: Parkinson's disease model mice; conditions: Non-Patent Document 2; cited from earlier work
rats = conditions: 52 consecutive weeks, 1.2 g/kg/day; cited from earlier work

| Compound | Amount of secreted saliva, Increased amount (healthy persons) [g/2 min.] | Amount of secreted saliva, After intake (healthy persons) [g/2 min.] | Amount of secreted saliva, Before intake (healthy persons) [g/2 min.] | Significant or excessive increase of secreted saliva before versus after intake (healthy persons) | Amount of secreted saliva, Increased amount [1] [g/2 min.] | Amount of secreted saliva, After intake [1] | Amount of secreted saliva, After intake ([1]; listed as oxidized coenzyme Q10) [g/2 min.] | Amount of secreted saliva, Before intake [1] [g/2 min.] | Amount of secreted saliva, Increased amount ([1]; listed as reduced coenzyme Q10) [g/2 min.] | Amount of secreted saliva, After intake ([1]; listed as reduced coenzyme Q10) [g/2 min.] | Comparison of salivary secretion-increasing effect ([1]; reduced versus oxidized coenzyme Q10 capsule) | Effect on conditions of Parkinson's disease model mice [2] | Toxicity (rats) |
| --- | --- | --- | --- | --- | --- | --- | --- | --- | --- | --- | --- | --- | --- |
| COC1=C(OC)C(=O)C(C/C=C(\C)CC/C=C(\C)CC/C=C(\C)CC/C=C(\C)CC/C=C(\C)CC/C=C(\C)CC/C=C(\C)CC/C=C(\C)CC/C=C(\C)CCC=C(C)C)=C(C)C1=O [Oxidized coenzyme Q10] | 0.43 | 6.16 | 5.73 | None of the oxidized coenzyme Q10 capsule administration group, the reduced coenzyme Q10 capsule administration group and the placebo capsule administration group showed a significant or excessive increase | 0.59 | 1.28* g/2 min. | 1.28 | 0.69 | – | – | – | – | – |
| COc1c(O)c(C)c(C/C=C(\C)CC/C=C(\C)CC/C=C(\C)CC/C=C(\C)CC/C=C(\C)CC/C=C(\C)CC/C=C(\C)CC/C=C(\C)CC/C=C(\C)CCC=C(C)C)c(O)c1OC [Reduced coenzyme Q10] | 0.10 | 3.54 | 3.44 | None of the oxidized coenzyme Q10 capsule administration group, the reduced coenzyme Q10 capsule administration group and the placebo capsule administration group showed a significant or excessive increase | 0.70 | 1.52* g/2 min. | – | 0.82 | 0.7 | 1.52 | higher effects than oxidized coenzyme Q10 | – | – |
| ubiquinone [Oxidized coenzyme Q] | – | – | – | – | – | – | – | – | – | – | – | effects to improve conditions | no evidence of toxicity |
